# Test results: patent publication US8735414B2 (priority 2009, dated 2014)
# What was measured:
# [1] = test system: bicistronic HCV replicon (replicon RNA, GenBank Accession No. AJ242654); assay: HCV Replicon Assay; format: cell-based; conditions: Hepatitis C virus, 72 h, read-out: Replicon IC50
Structure (SMILES),melting point [°C],IC50 [1] [nM]
"CCc1cc2c(cc1F)c(C#N)c(-c1ccc(S(=O)(=O)N[C@H](C)C(F)(F)F)cn1)n2C1CCCC1 [compound 632, 6-(3-cyano-1-cyclopentyl-6-ethyl-5-fluoro-1H-indol-2-yl)-N-[(2R)-1,1,1-trifluoropropan-2-yl]pyridine-3-sulfonamide]",205.5 to 206,< 500
"N#Cc1c(-c2ccc(S(N)(=O)=O)cn2)n(CC2CC2)c2cc(OC(F)F)c(F)cc12 [compound 812, 6-[3-cyano-1-(cyclopropylmethyl)-6-(difluoromethoxy)-5-fluoro-1H-indol-2-yl]pyridine-3-sulfonamide]",173 to 178,2000 to 5000
"Cc1ccc2c(C#N)c(-c3ncc(S(=O)(=O)NC(CF)CF)cn3)n(C3CCCC3)c2c1 [compound 135, 2-(3-cyano-1-cyclopentyl-6-methyl-1H-indol-2-yl)-N-(1,3-difluoropropan-2-yl)pyrimidine-5-sulfonamide]",229 to 231,< 500
"N#Cc1c(-c2ccc(S(=O)(=O)NC(CF)CF)cn2)n(C2CCCCC2)c2cc(Cl)ccc12 [compound 89, 6-(6-chloro-3-cyano-1-cyclohexyl-1H-indol-2-yl)-N-(1,3-difluoropropan-2-yl)pyridine-3-sulfonamide]",203 to 207,< 500
"N#Cc1c(-c2ncc(S(=O)(=O)NC(CF)CF)cn2)n(C2CCCCC2)c2cc(OC(F)(F)F)ccc12 [compound 306, 2-[3-cyano-1-cyclohexyl-6-(trifluoromethoxy)-1H-indol-2-yl]-N-(1,3-difluoropropan-2-yl)pyrimidine-5-sulfonamide]",168 to 170,500 to 2000
"Cc1cc2c(cc1F)c(C#N)c(-c1ccc(S(=O)(=O)N[C@@H](C)C(F)(F)F)cn1)n2-c1cncs1 [compound 973, 6-[3-cyano-5-fluoro-6-methyl-1-(1,3-thiazol-5-yl)-1H-indol-2-yl]-N-[(2S)-1,1,1-trifluoropropan-2-yl]pyridine-3-sulfonamide]",234 to 238,< 500
"CC(C)c1ccc2c(C#N)c(-c3ncc(S(=O)(=O)NC(CF)CF)cn3)n(C3CCC3)c2c1 [compound 186, 2-[3-cyano-1-cyclobutyl-6-(propan-2-yl)-1H-indol-2-yl]-N-(1,3-difluoropropan-2-yl)pyrimidine-5-sulfonamide]",214 to 222,< 500
"Cc1cc2c(C#N)c(-c3ncc(S(=O)(=O)NC(C)C)cn3)n(C3CCC3)c2cc1Cl [compound 507, 2-(6-chloro-3-cyano-1-cyclobutyl-5-methyl-1H-indol-2-yl)-N-(propan-2-yl)pyrimidine-5-sulfonamide]",217 to 218,500 to 2000
"CCc1ccc2c(C#N)c(-c3ccc(S(=O)(=O)NC(C)(C)C(F)(F)F)cn3)n(C3CCC3)c2c1 [compound 481, 6-(3-cyano-1-cyclobutyl-6-ethyl-1H-indol-2-yl)-N-(1,1,1-trifluoro-2-methylpropan-2-yl)pyridine-3-sulfonamide]",160 to 165,< 500
"CCc1cc2c(cc1F)c(C(N)=O)c(-c1ccc(S(=O)(=O)NC(C)(C)C(F)(F)F)cn1)n2-c1ncccn1 [compound 978, 6-ethyl-5-fluoro-1-(pyrimidin-2-yl)-2-{5-[(1,1,1-trifluoro-2-methylpropan-2-yl)sulfamoyl]pyridin-2-yl}-1H-indole-3-carboxamide]",261 to 269,2000 to 5000
"CC(C)c1ccc2c(C#N)c(-c3ccc(S(=O)(=O)NC(CF)CF)cn3)n(C3CCC3)c2c1 [compound 43, 6-[3-cyano-1-cyclobutyl-6-(propan-2-yl)-1H-indol-2-yl]-N-(1,3-difluoropropan-2-yl)pyridine-3-sulfonamide]",135 to 140,< 500
"Cc1ccc2c(C#N)c(-c3ccc(NS(=O)(=O)C4CC4)cn3)n(C3CCC3)c2c1 [compound 297, N-[6-(3-cyano-1-cyclobutyl-6-methyl-1H-indol-2-yl)pyridin-3-yl]cyclopropanesulfonamide]",200 to 205,500 to 2000
"C[C@H](NS(=O)(=O)c1ccc(-c2c(C#N)c3ccc(C4CCC4)cc3n2C2CCC2)nc1)C1CC1 [compound 263, 6-(3-cyano-1,6-dicyclobutyl-1H-indol-2-yl)-N-[(1S)-1-cyclopropylethyl]pyridine-3-sulfonamide]",124 to 126,< 500
"C[C@@H](NS(=O)(=O)c1ccc(-c2c(C#N)c3cc(Cl)ccc3n2-c2ccccn2)nc1)C(F)(F)F [compound 491, 6-[5-chloro-3-cyano-1-(pyridin-2-yl)-1H-indol-2-yl]-N-[(2R)-1,1,1-trifluoropropan-2-yl]pyridine-3-sulfonamide]",150 to 154,500 to 2000
"Cc1ccc(-n2c(-c3ccc(S(=O)(=O)NC(CF)CF)cn3)c(C#N)c3cc(F)ccc32)cc1 [compound 356, 6-[3-cyano-5-fluoro-1-(4-methylphenyl)-1H-indol-2-yl]-N-(1,3-difluoropropan-2-yl)pyridine-3-sulfonamide]",208 to 210,< 500
"C[C@@H](NS(=O)(=O)c1ccc(-c2c(C#N)c3ccc(OC(F)(F)F)cc3n2C2CCCCC2)nc1)C(F)(F)F [compound 304, 6-[3-cyano-1-cyclohexyl-6-(trifluoromethoxy)-1H-indol-2-yl]-N-[(2R)-1,1,1-trifluoropropan-2-yl]pyridine-3-sulfonamide]",181 to 183,< 500
"Cc1ccc2c(C#N)c(-c3ccc(S(=O)(=O)N[C@@H](C)C(F)(F)F)cn3)n(C3CCCC3)c2c1F [compound 424, 6-(3-cyano-1-cyclopentyl-7-fluoro-6-methyl-1H-indol-2-yl)-N-[(2S)-1,1,1-trifluoropropan-2-yl]pyridine-3-sulfonamide]",191 to 195,< 500
"C[C@H](NS(=O)(=O)c1ccc(-c2c(C#N)c3ccc(C(F)F)cc3n2C2CCC2)nc1)C(F)(F)F [compound 363, 6-[3-cyano-1-cyclobutyl-6-(difluoromethyl)-1H-indol-2-yl]-N-[(2S)-1,1,1-trifluoropropan-2-yl]pyridine-3-sulfonamide]",198 to 207,< 500
"N#Cc1c(-c2ccc(S(=O)(=O)NC3(C(F)(F)F)CC3)cn2)n(C2CCC2)c2cc(OC(F)F)c(F)cc12 [compound 808, 6-[3-cyano-1-cyclobutyl-6-(difluoromethoxy)-5-fluoro-1H-indol-2-yl]-N-[1-(trifluoromethyl)cyclopropyl]pyridine-3-sulfonamide]",169 to 171,< 500
"Cc1c(OC(F)F)c(F)cc2c(C#N)c(-c3ccc(S(=O)(=O)N[C@@H](C)C(F)(F)F)cn3)n(C3CCC3)c12 [compound 811, 6-[3-cyano-1-cyclobutyl-6-(difluoromethoxy)-5-fluoro-7-methyl-1H-indol-2-yl]-N-[(2S)-1,1,1-trifluoropropan-2-yl]pyridine-3-sulfonamide]",168 to 174,< 500
"CC(C)(C)S(=O)(=O)Nc1ccc(-c2c(C#N)c3ccc(OC(F)F)cc3n2C2CCC2)cn1 [compound 295, N-{5-[3-cyano-1-cyclobutyl-6-(difluoromethoxy)-1H-indol-2-yl]pyridin-2-yl}-2-methylpropane-2-sulfonamide]",239 to 240,2000 to 5000
"C[C@H](NS(=O)(=O)c1cnc(-c2c(C#N)c3cc(C(F)F)ccc3n2C2CCC2)nc1)C(F)(F)F [compound 380, 2-[3-cyano-1-cyclobutyl-5-(difluoromethyl)-1H-indol-2-yl]-N-[(2S)-1,1,1-trifluoropropan-2-yl]pyrimidine-5-sulfonamide]",186 to 188,< 500
"CCc1cc2c(cc1F)c(C#N)c(-c1ccc(S(=O)(=O)N[C@@H](C)C(F)(F)F)cn1)n2-c1cccnn1 [compound 975, 6-[3-cyano-6-ethyl-5-fluoro-1-(pyridazin-3-yl)-1H-indol-2-yl]-N-[(2S)-1,1,1-trifluoropropan-2-yl]pyridine-3-sulfonamide]",240 to 247,< 500
"Cc1cc2c(C#N)c(-c3ccc(S(=O)(=O)N[C@@H](C)C(F)(F)F)cn3)n(-c3cnccn3)c2cc1F [compound 919, 6-[3-cyano-6-fluoro-5-methyl-1-(pyrazin-2-yl)-1H-indol-2-yl]-N-[(2S)-1,1,1-trifluoropropan-2-yl]pyridine-3-sulfonamide]",233 to 238,< 500
"C[C@H](NS(=O)(=O)c1cnc(-c2c(C#N)c3cc(F)ccc3n2-c2ccccn2)nc1)C(F)(F)F [compound 474, 2-[3-cyano-5-fluoro-1-(pyridin-2-yl)-1H-indol-2-yl]-N-[(2S)-1,1,1-trifluoropropan-2-yl]pyrimidine-5-sulfonamide]",209 to 210,< 500
"N#Cc1c(-c2ccc(S(=O)(=O)NC(CF)CF)cn2)n(-c2ccccn2)c2cc(OC(F)F)ccc12 [compound 249, 6-[3-cyano-6-(difluoromethoxy)-1-(pyridin-2-yl)-1H-indol-2-yl]-N-(1,3-difluoropropan-2-yl)pyridine-3-sulfonamide]",186 to 190,< 500
"Cc1cc(-c2c(C#N)c3cc(F)c(OC(F)F)cc3n2C2CCC2)ncc1S(=O)(=O)N[C@@H](C)C(F)(F)F [compound 822, 6-[3-cyano-1-cyclobutyl-6-(difluoromethoxy)-5-fluoro-1H-indol-2-yl]-4-methyl-N-[(2S)-1,1,1-trifluoropropan-2-yl]pyridine-3-sulfonamide]",204 to 210,< 500
"C[C@H](NS(=O)(=O)c1ccc(-c2c(C#N)c3cc(F)ccc3n2C2CCCCC2)nc1)C(F)(F)F [compound 410, 6-(3-cyano-1-cyclohexyl-5-fluoro-1H-indol-2-yl)-N-[(2S)-1,1,1-trifluoropropan-2-yl]pyridine-3-sulfonamide]",209 to 211,< 500
